The values that follow come from ChEMBL document CHEMBL1130512, “Structure-based design of non-peptidic pyridone aldehydes as inhibitors of interleukin-1 converting enzyme” (Bioorg Med Chem Lett, 1997).

In the assay the target is T1, Caspase-1 (Homo sapiens, UniProt P29466).
T1 sequence (P29466 whole entry): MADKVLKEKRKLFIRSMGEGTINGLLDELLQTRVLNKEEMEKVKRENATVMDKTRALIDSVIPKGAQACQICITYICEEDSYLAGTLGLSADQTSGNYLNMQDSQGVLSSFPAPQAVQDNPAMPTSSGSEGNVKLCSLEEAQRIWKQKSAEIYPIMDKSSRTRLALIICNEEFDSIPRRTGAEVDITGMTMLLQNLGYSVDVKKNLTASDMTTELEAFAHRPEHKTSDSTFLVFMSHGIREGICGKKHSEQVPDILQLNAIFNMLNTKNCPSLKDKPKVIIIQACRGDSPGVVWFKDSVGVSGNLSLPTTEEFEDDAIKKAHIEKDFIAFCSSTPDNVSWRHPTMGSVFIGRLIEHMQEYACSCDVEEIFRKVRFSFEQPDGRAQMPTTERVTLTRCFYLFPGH
Nature of the assay: Inhibition of IL-1 beta converting enzyme.

As usually defined, the Ki is the equilibrium dissociation constant of an inhibitor or competing ligand from its target.

Residues, ends and D or L forms follow the SMILES beside them. *: point of attachment. Hydrocinnamoyl = O=C(CCc1ccccc1)*; Cbz = O=C(OCc1ccccc1)*

`CC(=O)NC(C(=O)Nc1ccc(Cc2ccccc2)n(CC(=O)N[C@H](C=O)CC(=O)O)c1=O)c1ccc(O)cc1` (stereo partly specified) displayed a Ki of 54 nM.
Under `CC(=O)N[C@@H](Cc1ccc(O)cc1)C(=O)N[C@H](C(=O)N[C@@H](C)C(=O)N[C@@H](CC(=O)O)C(=O)O)C(C)C` stands 9 nM.
With `O=C[C@H](CC(=O)O)NC(=O)Cn1c(-c2ccccc2)ccc(NC(=O)CCc2ccccc2)c1=O` the figure was 900 nM.
Turning to `CC(C)[C@H](NC(=O)OCc1ccccc1)C(=O)N[C@@H](C)C(=O)N[C@@H](CC(=O)O)C(=O)O` (Cbz-Val-Ala-Asp-OH), affinity was put at a Ki of 55 nM.
`CC(C)[C@H](NC(=O)OCc1ccccc1)C(=O)NCC(=O)N[C@@H](CC(=O)O)C(=O)O` (Cbz-Val-Gly-Asp-OH) had an inhibition constant Ki of 1300 nM. This Ki is about 24-fold higher than that of the compound before.
Turning to `CC(C)[C@H](NC(=O)CCc1ccccc1)C(=O)N[C@@H](C)C(=O)N[C@@H](CC(=O)O)C(=O)O` (Hydrocinnamoyl-Val-Ala-Asp-OH), the inhibition constant (Ki) stood at 54 nM. Against the preceding compound, the Ki is about 24-fold lower.
